The subject of the assay is PK1 neuroblastoma cells exposed to TPrP. The experiment in a line: cells. Conditions: Neuroblastoma cell, 96 h, read-out: TPrP EC50.
In the case of `C=CCN1C[C@H](C)N(S(=O)(=O)c2cc(-c3ccnc(Cl)c3)ccc2C)C[C@H]1C` (relative stereo) [SR-35465, (trans)-1-allyl-4-((5-(2-chloropyridin-4-yl)-2-methylphenyl)sulfonyl)-2,5-dimethylpiperazine], the concentration giving a half-maximal response (EC50) was more than 1500 nM.

With `Cc1ccc(-c2cnn(C)c2)cc1S(=O)(=O)N1CCOCC1` [SR-24578], the concentration giving a half-maximal response (EC50) came out at 100 nM.

As to `Cc1ccc(-c2cnn(CCN3CCOCC3)c2)cc1S(=O)(=O)N1CCOCC1` [SR-24581], the half-maximal effective concentration (EC50) is 100 nM.

With `Cc1ccc(-c2ccncc2)cc1S(=O)(=O)N1CCOCC1` [SR-24583], the EC50 came out at 100 nM.

In the case of `CC(=O)NCCNc1cc(-c2ccc(C)c(S(=O)(=O)N3CCOCC3)c2)ccn1` [SR-25104, N-(2-((4-(4-methyl-3-(morpholinosulfonyl)phenyl)pyridin-2-yl)amino)ethyl) acetamide], the EC50 amounted to 100 nM.

As for `CC(=O)N(C)CCN(C)c1cc(-c2ccc(C)c(S(=O)(=O)N3CCOCC3)c2)ccn1` [SR-25124, N-methyl-N-(2-(methyl(4-(4-methyl-3-(morpholinosulfonyl)phenyl)pyridin-2-yl)amino)ethyl)acetamide], the EC50 worked out at 240 nM.

With `Cc1ccc(NCc2ccncc2)cc1S(=O)(=O)N1CCOCC1` [SR-25464, 4-Methyl-3-(morpholinosulfonyl)-N-(pyridin-4-ylmethyl)aniline], the concentration giving a half-maximal response (EC50) was more than 320 nM.

For the molecule `CC(=O)N1CCN(CCn2cc(-c3ccc(C)c(S(=O)(=O)N4CCOCC4)c3)cn2)CC1` [SR-25484, 1-(4-(2-(4-(4-Methyl-3-(morpholinosulfonyl)phenyl)-1H-pyrazol-1-yl)ethyl)piperazin-1-yl)ethan-1-one], the EC50 came out at 140 nM.

On to `Cc1ccc(-c2c(C)nn(C)c2C)cc1S(=O)(=O)N1CCOCC1` [SR-25584, 4-((2-Methyl-5-(1,3,5-trimethyl-1H-pyrazol-4-yl)phenyl)sulfonyl)morpholine], for which the half-maximal effective concentration (EC50) was more than 320 nM.

Take `Cc1ccc(-c2n[nH]c(-c3ccccc3)n2)cc1S(=O)(=O)N1CCOCC1` [SR-25604-2]: the EC50 was found to be 40 nM.

Turning to `CC(=O)NC1CCN(CCn2cc(-c3ccc(C)c(S(=O)(=O)N4CCOCC4)c3)cn2)CC1` [SR-25864, N-(1-(2-(4-(4-methyl-3-(morpholinosulfonyl)phenyl)-1H-pyrazol-1-yl)ethyl)piperidin-4-yl)acetamide], the EC50 was determined as 120 nM.

As to `O=S(=O)(c1ccc(-c2nnc(-c3ccccc3)[nH]2)cc1Cl)N1CCOCC1` [SR-26324, 4-((2-Chloro-4-(5-phenyl-4H-1,2,4-triazol-3-yl)phenyl)sulfonyl)morpholine], the concentration for a half-maximal effect (EC50) was more than 320 nM.

For `Cc1ccc(-c2nnc(C)c3ccccc23)cc1S(=O)(=O)N1CCOCC1` [SR-26424, 4-((2-Methyl-5-(4-methylphthalazin-1-yl)phenyl)sulfonyl)morpholine], the 50% effective concentration (EC50) was more than 320 nM.

In the case of `O=S(=O)(c1ccc(-c2nnc(-c3ccccc3)[nH]2)cc1C(F)(F)F)N1CCOCC1` [SR-26444, 4-((4-(5-Phenyl-4H-1,2,4-triazol-3-yl)-2-(trifluoromethyl)phenyl)sulfonyl) morpholine], the EC50 is more than 320 nM.

For `Cc1ccc(-c2nc3ccccn3n2)cc1S(=O)(=O)N1CCOCC1` [SR-26524, 4-((5-([1,2,4]Triazolo[1,5-a]pyridin-2-yl)-2-methylphenyl)sulfonyl) morpholine], the EC50 was determined as 50 nM.

As for `O=S(=O)(c1cc(-c2nnc(-c3ccccc3)[nH]2)ccc1Cl)N1CCOCC1` [SR-26525, 4-((2-Chloro-5-(5-phenyl-4H-1,2,4-triazol-3-yl)phenyl)sulfonyl)morpholine], the EC50 came out at 100 nM.

In the case of `COc1ccc(-c2nnc(-c3ccccc3)[nH]2)cc1S(=O)(=O)N1CCOCC1` [SR-26624, 4-((2-Methoxy-5-(5-phenyl-4H-1,2,4-triazol-3-yl)phenyl)sulfonyl) morpholine], the EC50 was 260 nM.

Take `Cc1ccc(-c2cnc3ccccn23)cc1S(=O)(=O)N1CCOCC1` [SR-27444, 4-((5-(Imidazo[1,2-a]pyridin-3-yl)-2-methylphenyl)sulfonyl)morpholine]: the EC50 is more than 320 nM.

As for `Cc1ccc(-c2cccc3[nH]ncc23)cc1S(=O)(=O)N1CCOCC1` [SR-27484, 4-((5-(1H-Indazol-4-yl)-2-methylphenyl)sulfonyl)morpholine], the EC50 was more than 320 nM.

With `N#Cc1ccc(-c2nnc(-c3ccccc3)[nH]2)cc1S(=O)(=O)N1CCOCC1` [SR-27504, 2-(Morpholinosulfonyl)-4-(5-phenyl-4H-1,2,4-triazol-3-yl)benzonitrile], the half-maximal effective concentration (EC50) is more than 320 nM.

With `Cc1ccc(-c2nnc(-c3ccccc3)s2)cc1S(=O)(=O)N1CCOCC1` [SR-27524, 4-((2-Methyl-5-(5-phenyl-1,3,4-thiadiazol-2-yl)phenyl)sulfonyl)morpholine], the half-maximal effective concentration (EC50) came out at 180 nM.

Take `Cc1ccc(-c2nnc(-c3ccccc3)o2)cc1S(=O)(=O)N1CCOCC1` [SR-27558, 4-((2-Methyl-5-(5-phenyl-1,3,4-oxadiazol-2-yl)phenyl)sulfonyl)morpholine]: the EC50 came to 140 nM.

With `Cc1ccc(-c2n[nH]c3ccccc23)cc1S(=O)(=O)N1CCOCC1` [SR-27564, 4-((5-(1H-Indazol-3-yl)-2-methylphenyl)sulfonyl)morpholine], the half-maximal effective concentration (EC50) was 135 nM.

As to `Cc1ccc(-c2nnc(-c3ccc(F)cc3)[nH]2)cc1S(=O)(=O)N1CCOCC1` [SR-27964, 4-((5-(5-(4-Fluorophenyl)-4H-1,2,4-triazol-3-yl)-2-methylphenyl)sulfonyl) morpholine], the EC50 stood at 40 nM.

With `Cc1ccc(-c2nnc(-c3ccc(F)c(F)c3)[nH]2)cc1S(=O)(=O)N1CCOCC1` [SR-27984, 4-((5-(5-(3,4-Difluorophenyl)-4H-1,2,4-triazol-3-yl)-2-methylphenyl)sulfonyl) morpholine], the EC50 was determined as 20 nM.

In the case of `O=S(=O)(c1cc(-c2nnc(-c3ccccc3)[nH]2)ccn1)N1CCOCC1` [SR-28004, 4-((4-(5-Phenyl-4H-1,2,4-triazol-3-yl)pyridin-2-yl)sulfonyl)morpholine], the EC50 is more than 1200 nM.

With `COc1ccc(-c2nnc(-c3ccc(C)c(S(=O)(=O)N4CCOCC4)c3)[nH]2)cc1` [SR-28104, 4-((5-(5-(4-Methoxyphenyl)-4H-1,2,4-triazol-3-yl)-2-methylphenyl)sulfonyl) morpholine], the half-maximal effective concentration (EC50) worked out at 15 nM.

On to `O=S(=O)(c1cc(-c2nnc(-c3ccccc3)[nH]2)ccc1C(F)(F)F)N1CCOCC1` [SR-28125, 4-((5-(5-Phenyl-4H-1,2,4-triazol-3-yl)-2-(trifluoromethyl)phenyl)sulfonyl) morpholine], for which the concentration giving a half-maximal response (EC50) came to 30 nM.

As for `Cc1ccc(-c2nnc(-c3ccc(Br)cc3)[nH]2)cc1S(=O)(=O)N1CCOCC1` [SR-28144, 4-((5-(5-(4-Bromophenyl)-4H-1,2,4-triazol-3-yl)-2-methylphenyl)sulfonyl) morpholine], the EC50 was found to be 40 nM.

`Cc1ccc(-c2nnc(-c3ccncc3)[nH]2)cc1S(=O)(=O)N1CCOCC1` [SR-28224, 4-((2-Methyl-5-(5-(pyridin-4-yl)-4H-1,2,4-triazol-3-yl)phenyl)sulfonyl) morpholine]: the concentration for a half-maximal effect (EC50) came to 18 nM.

In the case of `Cc1ccc(-c2nnc(C3CCCCC3)[nH]2)cc1S(=O)(=O)N1CCOCC1` [SR-28565, 4-((5-(5-Cyclohexyl-4H-1,2,4-triazol-3-yl)-2-methylphenyl)sulfonyl)morpholine], the 50% effective concentration (EC50) was 150 nM.

Turning to `Cc1ccc(-c2cnn(Cc3ccccc3)c2)cc1S(=O)(=O)N1CCOCC1` [SR-28764, 4-((5-(1-Benzyl-1H-pyrazol-4-yl)-2-methylphenyl)sulfonyl)morpholine], the EC50 was 150 nM.

With `Cc1ccc(-c2ncc(-c3ccccc3)[nH]2)cc1S(=O)(=O)N1CCOCC1` [SR-28804, 4-((2-Methyl-5-(5-phenyl-1H-imidazol-2-yl)phenyl)sulfonyl)morpholine], the EC50 came to 400 nM.

Turning to `Cc1ccc(-c2nnc(-c3ccccc3)n2C)cc1S(=O)(=O)N1CCOCC1` [SR-28864, 4-((2-Methyl-5-(4-methyl-5-phenyl-4H-1,2,4-triazol-3-yl)phenyl)sulfonyl) morpholine], the EC50 was more than 1200 nM.

As to `Cc1ccc(-c2ccnc(-c3ccc(F)cc3)c2)cc1S(=O)(=O)N1CCOCC1` [SR-28924, 4-((5-(2-(4-Fluorophenyl)pyridin-4-yl)-2-methylphenyl)sulfonyl)morpholine], the concentration giving a half-maximal response (EC50) was determined as 40 nM.

For `Cc1ccc(-c2cnn(-c3ccccc3)c2)cc1S(=O)(=O)N1CCOCC1` [SR-28925, 4-((2-Methyl-5-(1-phenyl-1H-pyrazol-4-yl)phenyl)sulfonyl)morpholine], the EC50 worked out at 20 nM.

Turning to `Cc1ccc(-c2ccnc(-c3ccccc3)c2)cc1S(=O)(=O)N1CCOCC1` [SR-28984, 4-((2-Methyl-5-(2-phenylpyridin-4-yl)phenyl)sulfonyl)morpholine], the EC50 came to 30 nM.

As to `Cc1ccc(-c2coc(-c3ccccc3)c2)cc1S(=O)(=O)N1CCOCC1` [SR-29044, 4-((2-Methyl-5-(5-phenylfuran-3-yl)phenyl)sulfonyl)morpholine], the half-maximal effective concentration (EC50) was more than 1200 nM.

On to `Cc1ccc(-c2ccn(-c3ccccc3)c2)cc1S(=O)(=O)N1CCOCC1` [SR-29084, 4-((2-Methyl-5-(1-phenyl-1H-pyrrol-3-yl)phenyl)sulfonyl)morpholine], for which the concentration giving a half-maximal response (EC50) is 600 nM.

Turning to `Cc1ccc(-c2csc(-c3ccccc3)c2)cc1S(=O)(=O)N1CCOCC1` [SR-29184, 4-((2-Methyl-5-(5-phenylthiophen-3-yl)phenyl)sulfonyl)morpholine], the EC50 is more than 1200 nM.

For the molecule `Cc1ccc(-c2ccnc(N3CCOCC3)c2)cc1S(=O)(=O)N1CCOCC1` [SR-29224, 4-(4-(4-Methyl-3-(morpholinosulfonyl)phenyl)pyridin-2-yl)morpholine], the half-maximal effective concentration (EC50) is 6 nM.

Take `Cc1ccc(-c2c[nH]cc2-c2ccccc2)cc1S(=O)(=O)N1CCOCC1` [SR-29285, 4-((2-Methyl-5-(4-phenyl-1H-pyrrol-3-yl)phenyl)sulfonyl)morpholine]: the concentration for a half-maximal effect (EC50) was more than 1200 nM.

In the case of `O=S(=O)(c1cc(-c2nnc(-c3ccccc3)[nH]2)ccc1C1CC1)N1CCOCC1` [SR-29784, 4-((2-Cyclopropyl-5-(5-phenyl-4H-1,2,4-triazol-3-yl)phenyl)sulfonyl) morpholine], the concentration for a half-maximal effect (EC50) was 600 nM.

In general, EC50 refers to the concentration needed to bring the measured effect to its halfway point.
